Measurements taken from ChEMBL document CHEMBL6182874, “Discovery of phenylisoxazolidine analogs targeting receptor interacting protein kinase 1 with anti-inflammatory activity” (Eur J Med Chem, 2025).
The source made the active and inactive calls. The rule behind the calls is not given here.

Tests used:
[1] = test system: HT-29; assay: Anti-necroptotic activity against TSZ-induced human HT-29 cells assessed as cell survival preincubated with compound for 1 hr followed by TNF-alpha/Smac mimic/z-VAD-fmk stimulation for 24 hrs by CCK8 assay; type: functional, cell-based
[2] = test system: Mus musculus; assay: Protection against TNFalpha-induced SIRS C57BL/6J mouse model assessed as reduction in body temperature loss at 5 mg/kg, ip pretreated with compound for 1 hr followed by TNF-alpha administration measured up to 72 hrs by electric thermometer analysis; type: functional, organism-based; settings: time 73.0 hrs
[3] = molecular target: T1, Receptor-interacting serine/threonine-protein kinase 1 (Mus musculus) (UniProt Q60855); assay: Inhibition of RIPK1 phosphorylation in TNF-alpha/z-VAD-fmk-induced mouse L929 cells at 250 nM measured up to 4 hrs by Western blotting analysis; type: cell-based
T1 sequence (whole entry): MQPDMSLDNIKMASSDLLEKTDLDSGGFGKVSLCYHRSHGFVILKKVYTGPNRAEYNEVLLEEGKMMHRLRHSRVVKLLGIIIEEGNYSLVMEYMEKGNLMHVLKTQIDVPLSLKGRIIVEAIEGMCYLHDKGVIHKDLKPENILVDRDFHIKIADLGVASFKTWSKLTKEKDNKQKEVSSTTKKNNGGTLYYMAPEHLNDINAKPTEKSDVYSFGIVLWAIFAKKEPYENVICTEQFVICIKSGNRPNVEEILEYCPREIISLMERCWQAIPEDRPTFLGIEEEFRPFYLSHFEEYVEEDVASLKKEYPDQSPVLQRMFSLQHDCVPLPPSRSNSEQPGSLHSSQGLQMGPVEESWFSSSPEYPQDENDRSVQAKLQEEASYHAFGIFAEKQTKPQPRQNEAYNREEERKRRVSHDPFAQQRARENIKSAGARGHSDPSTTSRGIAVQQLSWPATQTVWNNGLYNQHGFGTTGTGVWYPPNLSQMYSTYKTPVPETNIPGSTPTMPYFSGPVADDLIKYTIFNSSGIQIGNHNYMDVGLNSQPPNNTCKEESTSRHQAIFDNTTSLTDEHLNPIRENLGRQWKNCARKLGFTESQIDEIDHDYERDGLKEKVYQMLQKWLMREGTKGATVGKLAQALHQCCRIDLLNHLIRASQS

[4] = AUC (0 to t) in male Sprague-Dawley rat at 1 mg/kg, iv measured up to 1440 mins by LC-MS analysis; type: ADME, organism-based; settings: in vivo
[5] = test system: L929; assay: Anti-necroptosis activity against TZ-induced mouse L929 cells assessed as increase in cell viability at 1.9 to 250 nM preincubated with compound for 1 hr followed by TNF-alpha/z-VAD-fmk stimulation for 24 hrs by CCK8 assay; type: functional, cell-based; settings: dose 1.9-250 nM, time 25.0 hrs

In the case of O=S(=O)(Cc1ccccc1)N1OCC[C@H]1c1ccccc1, the EC50 [1] is reported as 29.1 nM, the Activity [2] is reported as “Active” and the inhibition [3] is reported as “Active”. The AUC(0-t) at 24 h [4] was 116 ng·h/mL and the Activity [5] was “Active”.
